Source: patent US20100081689A1, “Methods and Compositions for the Treatment of Iron Toxicity” (Georgetown University, priority 2008, published 2010)

Assays:
MDA levels = conditions: CKD patients treated with iron gluconate; cited from earlier work
aortic ring = conditions: cited from earlier work; for iron-induced endothelial dysfunction of the blood vessel: rats, iron co-administered with the antioxidant
rat aortic rings = assay: animal or person; format: in vivo, Sprague-Dawley rats; conditions: for relaxation response to acetylcholine at 100 nM in iron treated rats given antioxidant: 100 nM acetylcholine, iron sucrose plus Tempol (drinking water), N-acetylcysteine 140 mg/kg iv or Vitamin C 100 mg/kg iv, iron alone 22±10%; for Maximum relaxation of aortic ring in iron-treated animals given antioxidant: iron sucrose 14 mg/kg iv plus Tempol 2 mmol/L in drinking water 72 h or N-acetylcysteine 140 mg/kg iv, iron alone 46±14%
Procedure: Forty seven normal Sprague-Dawley rats (280-350 g) were included in this study. Twenty three rats were injected in the tail vein with 14 mg/kg iron sucrose (Venofer, American Regent) twenty four hours before dissection of the aortic ring.
Twenty four hours after iron sucrose injection, the rats were sacrificed by interperitoneal injection of 100 mg/kg Inactin. Blood was collected for measurement of markers of oxidative stress and the thoracic aorta isolated and placed in ice cold PSS.
The surrounding tissue of aorta was carefully dissected away and care taken to not damage the endothelium. The aorta was then cut into a 4-5 mm width transverse ring and then mounted isometrically in 10 mL organ bath containing oxygenated PSS warmed to 37° C. and gassed with air.
The aortic ring was suspended under a resting force of […] and allowed to equilibrate for 30 minutes before administration of any agents. The bath was perfused with fresh PSS and was washed with PSS after each test response to the administered agents. The aortic ring was preconstricted with 10 nM phenylephrine prior to the addition of acetylcholine, and allowed to equilibrate for another 30 minutes.
Isometric contraction was measured on an oscillographic recorder. Subsequently acetylcholine was added to the bath in increasing doses of 1 nM to 100 μM and the relaxation response to each dose was recorded as the percentage of the drop in the starting resting force. […] P<0.05 was considered significant.

[1] = light stability of Tempol solutions; format: physicochemical; conditions: solutions left in sunlight
oxidative stress markers = conditions: cited from earlier work

CC(=O)N[C@@H](CS)C(=O)O [N-acetylcysteine]
MDA level decrease after iron gluconate (MDA levels): not observed | iron-induced endothelial dysfunction of the blood vessel (aortic ring): completely attenuated | relaxation response to acetylcholine at 100 nM in iron treated rats given antioxidant (rat aortic rings): 42±13% | Maximum relaxation of aortic ring in iron-treated animals given antioxidant (rat aortic rings): 69.9±13%

CC1(C)CC(O)CC(C)(C)N1[O] [Tempol, 4-hydroxy-2,2,6,6-tetramethyl-1-piperidine-1-oxyl]
stability of solutions in sunlight [1]: discolor when left in sunlight | iron-induced endothelial dysfunction of the blood vessel (aortic ring): completely attenuated | relaxation response to acetylcholine at 100 nM in iron treated rats given antioxidant (rat aortic rings): 48±17% | Maximum relaxation of aortic ring in iron-treated animals given antioxidant (rat aortic rings): 75±15%

O=C1O[C@H]([C@@H](O)CO)C(O)=C1O [Vitamin C]
relaxation response to acetylcholine at 100 nM in iron treated rats given antioxidant (rat aortic rings): 41±8% | relaxation response to 100 nM through 100 μM of acetylcholine, addition to iron treatment (rat aortic rings; Vitamin C 100 mg/kg iv with iron sucrose, only statistically significant at 100 nM acetylcholine (FIG. 3)): increased the relaxation response | reducing iron-induced oxidative stress markers (oxidative stress markers; dialysis population): not been shown to be effective | effect when co-administered with iron (oxidative stress markers; subjects with physiologic Vitamin C levels): pro-oxidant effect

CC(=O)OCC[N+](C)(C)C [acetylcholine]
IC50 (rat aortic rings; Rattus norvegicus, iv, aortic rings preconstricted with 10 nM phenylephrine, all treatment groups, read-out: IC50 for all dose response curves (acetylcholine relaxation of aortic ring)): 0.1 µM

iron sucrose
reduction in aortic ring vasodilation in response to acetylcholine (aortic ring; rat, in vivo, iv): 40% | relaxation response of aortic ring to increasing doses of acetylcholine (rat aortic rings; rat, in vivo): significantly reduced | relaxation response to acetylcholine at 100 nM (rat aortic rings; rat, in vivo): 22±10% | Maximum relaxation of aortic ring (percentage of the drop in the starting resting force) (rat aortic rings; rat, in vivo, iv, 14 mg/kg): 46±14%
